This assay deals with T1, sigma-1 receptor (Homo sapiens, UniProt Q99720).
T1 construct: incubing Jurkat cell membranes ([…] protein per tube) with [^3H](+)-pentazocine; endogenous in cells; host or cells: Jurkat cell membranes
Briefly: sigma-1 receptor binding assay ([3H](+)-pentazocine displacement, Jurkat cell membranes). As to conditions: [3H](+)-pentazocine 15 nM, 37° C., 2 hours; for inhibition at 0.01 µM / sigma-1 receptor % inhibition 10 nM: tested compound 10 nM. The method, then:
The sigma-1 receptor binding assays were performed according to Ganapathy et al. (J Pharmacol Exp Ther 28:251-60, 1999). The sigma-1 receptor binding assay was carried out by incubing Jurkat cell membranes ([…] protein per tube) with [^3H](+)-pentazocine a selective sigma-1 radiotracer (15 nM) and a range of concentration of tested compounds, at 37° C. for 2 hours in 5 mM tris/HCl buffer (pH=7.4). The inhibition of [^3H](+)-pentazocine binding assay is mainly used to determine the inhibition constant (Ki) of potential sigma-1 receptor ligands. These assays are performed with a single concentration of [^3H](+)-pentazocine at a concentration near its KD and increasing concentrations of non-radioactive ligands.

Structures can show the parent of a compound that is named as a salt.

T1 sequence (Q99720 whole entry): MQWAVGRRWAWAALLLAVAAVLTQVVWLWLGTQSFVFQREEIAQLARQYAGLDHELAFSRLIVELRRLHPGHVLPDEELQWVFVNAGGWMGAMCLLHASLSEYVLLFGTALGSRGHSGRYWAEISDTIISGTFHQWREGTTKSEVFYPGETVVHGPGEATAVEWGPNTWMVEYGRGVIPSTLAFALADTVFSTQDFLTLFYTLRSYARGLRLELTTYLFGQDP

In the case of `O=c1c(-c2ccccc2)ccnn1CC1CCN(CC(O)c2ccccc2)CC1` (stereo not drawn) [cpd 25, 2-((1-(2-hydroxy-2-phenylethyl)piperidin-4-yl)methyl)-4-phenylpyridazin-3(2H)-one hydrochloride], the inhibition at 0.01 µM was 15.3%.
In turn, `O=c1c(-c2ccccc2)ccnn1C1CCCN(Cc2ccccc2)CC1` (stereo not drawn) [cpd 6, 2-(1-benzylazepan-4-yl)-4-phenyl-2,3-dihydropyridazin-3-one hydrochloride] gave an inhibition at 0.01 µM of 81.4%.
For `Cl.O=c1c(-c2ccccc2)ccnn1C1CCN(CC2CCCC2)CC1` [cpd 5, 2-[1-(cyclopentylmethyl)piperidin-4-yl]-4-phenyl-2,3-dihydropyridazin-3-one hydro-chloride], the “sigma-1 receptor % inhibition 10 nM” value is 60.7%.
For the compound `O=c1c(N2CCN(c3ccccc3)CC2)ccnn1CC1CCN(Cc2ccccc2)CC1` [cpd 41, 2-((1-benzylpiperidin-4-yl)methyl)-4-(4-phenylpiperazin-1-yl)pyridazin-3(2H)-one hydrochloride], at 0.01 µM the inhibition was 5.2%.
The same measure, in the same setting: the figure for `O=c1c(N2CCc3ccccc3C2)ccnn1CC1CCN(Cc2ccccc2)CC1` [cpd 42, 2-((1-benzylpiperidin-4-yl)methyl)-4-(3,4-dihydroisoquinolin-2(1H)-yl)pyridazin-3(2H)-one hydrochloride] is 25.4%; for `O=c1c(-c2ccccc2Cl)ccnn1CC1CCN(Cc2ccccc2)CC1` [cpd 33, 2-[(1-benzylpiperidin-4-yl)methyl]-4-(2-chlorophenyl)-2,3-dihydropyridazin-3-one hydrochloride] it is 51.2%.
In turn, `O=C(CN1CCC(Cn2nccc(-c3ccccc3)c2=O)CC1)c1ccc(F)cc1` [cpd 24, 2-((1-(2-(4-fluorophenyl)-2-oxoethyl)piperidin-4-yl)methyl)-4-phenylpyridazin-3(2H)-one hydrochloride] returned an inhibition at 0.01 µM of 6.2%.
On to `O=c1cc(-c2ccccc2)cnn1CCC1CCN(Cc2ccccc2)CC1` [cpd 27, 2-(2-(1-benzylpiperidin-4-yl)ethyl)-5-phenylpyridazin-3(2H)-one hydrochloride], for which at 0.01 µM the inhibition was 61.7%.
Compound `O=c1c(CCc2ccccc2)ccnn1CC1CCN(Cc2ccccc2)CC1` [cpd 36, 2-((1-benzylpiperidin-4-yl)methyl)-4-phenethylpyridazin-3(2H)-one] displayed an inhibition at 0.01 µM of 44.2%.
The compound `O=c1c(-c2ccccc2)ccnn1CC1CCN(CCO)CC1` [cpd 20, 2-((1-(2-hydroxyethyl)piperidin-4-yl)methyl)-4-phenylpyridazin-3(2H)-one hydrochloride] registered an inhibition at 0.01 µM of 18.9%.
As to `O=c1c(-c2ccc(C(F)(F)F)cc2)ccnn1C1CCN(Cc2ccccc2)CC1` [cpd 31, 2-(1-benzylpiperidin-4-yl)-4-[4-(trifluoromethyl)phenyl]-2,3-dihydropyridazin-3-one hydro chloride], the inhibition at 0.1 µM (tested compound 100 nM) is 80%.
`O=c1c(-c2ccccc2)ccnn1CC1CCN(CC2CCCCC2)CC1` [cpd 13, 2-((1-(cyclohexylmethyl)piperidin-4-yl)methyl)-4-phenylpyridazin-3(2H)-one hydrochloride]: the inhibition at 0.01 µM is 59.3%.
On the same count and under the same terms, the figure for `O=c1c(N2CCOCC2)ccnn1CC1CCN(Cc2ccccc2)CC1` [cpd 40, 2-((1-benzylpiperidin-4-yl)methyl)-4-morpholinopyridazin-3(2H)-one hydrochloride] is 8.2%.
Turning to `Cl.O=c1c(N2CCCCC2)ccnn1CC1CCN(Cc2ccccc2)CC1` [cpd 39, 2-[(1-benzylpiperidin-4-yl)methyl]-4-(piperidin-1-yl)-2,3-dihydropyridazin-3-one hydro-chloride], the “sigma-1 receptor % inhibition 10 nM” value came out at 51.8%.
As to `Cl.O=c1c(-c2ccc(Cl)cc2)ccnn1C1CCN(Cc2ccccc2)CC1` [cpd 32], where the note is “tested compound 100 nM”, the “sigma-1 receptor % inhibition 100 nM” value is recorded as 91.1%.
Under “tested compound 100 nM”, `COc1ccc(-c2ccnn(C3CCN(Cc4ccccc4)CC3)c2=O)cc1` [cpd 30, 2-(1-benzylpiperidin-4-yl)-4-(4-methoxyphenyl)pyridazin-3(2H)-one hydrochloride] returned an inhibition at 0.1 µM of 75.8%.
Compound `O=c1c(-c2ccccc2)ccnn1CC1CCN(CCc2ccccc2)CC1` [cpd 10, 2-((1-phenethylpiperidin-4-yl)methyl)-4-phenylpyridazin-3(2H)-one hydrochloride] registered an inhibition at 0.01 µM of 29.2%.
As to `O=c1c(-c2ccccc2)ccnn1CC1CCN(Cc2ccc(O)cc2)CC1` [cpd 18, 2-((1-(4-hydroxybenzyl)piperidin-4-yl)methyl)-4-phenylpyridazin-3(2H)-one hydrochloride], at 0.01 µM the inhibition was 16.7%.
`O=c1cc(-c2ccccc2)cnn1C1CCN(Cc2ccccc2)CC1` [cpd 2, 2-(1-benzylpiperidin-4-yl)-5-phenylpyridazin-3(2H)-one hydrochloride] registered an inhibition at 0.01 µM of 86%. The compound also had an inhibition at 0.1 µM (tested compound 100 nM) of 90%.
`O=c1c(-c2ccccc2)ccnn1CC1CCCN(Cc2ccccc2)C1` (stereo not drawn) [cpd 9, 2-[(1-benzylpiperidin-3-yl)methyl]-4-phenyl-2,3-dihydropyridazin-3-one hydrochloride] had an inhibition at 0.01 µM of 38.8%.
In turn, `O=c1c(-c2ccccc2)ccnn1CCC1CCN(Cc2ccccc2)CC1` [cpd 26, 2-(2-(1-benzylpiperidin-4-yl)ethyl)-4-phenylpyridazin-3(2H)-one hydrochloride] came in with an inhibition at 0.01 µM of 80.9%. Where the note is “tested compound 100 nM”, the inhibition at 0.1 µM was 95%.
As to `Cl.Cl.O=c1c(-c2ccccc2)ccnn1CC1CCN(Cc2cnc[nH]2)CC1` [cpd 16, 2-{[1-(1H-imidazol-5-ylmethyl)piperidin-4-yl]methyl}-4-phenyl-2,3-dihydropyridazin-3-one dihydro-chloride], the “sigma-1 receptor % inhibition 10 nM” value stood at 3.8%.
In the case of `O=c1c(-c2ccccc2)cccn1C1CCN(Cc2ccccc2)CC1` [cpd 44, 1-(1-benzylpiperidin-4-yl)-3-phenyl-1,2-dihydropyridin-2-one hydrochloride], the inhibition at 0.01 µM is 29.6%.
`O=c1c(-c2ccccc2)ccnn1CC1CCN(Cc2ccc(Cl)cc2)CC1` [cpd 12, 2-((1-(4-chlorobenzyl)piperidin-4-yl)methyl)-4-phenylpyridazin-3(2H)-one hydrochloride]: testing at 0.01 µM gave an inhibition of 73.1%.
Compound `O=c1c(-c2ccccc2)ccnn1C1CCN(CC2CC2)CC1` [cpd 4, 2-[1-(cyclopropylmethyl)piperidin-4-yl]-4-phenyl-2,3-dihydropyridazin-3-one hydrochloride] gave an inhibition at 0.01 µM of 13.5%.
Turning to `O=c1c(-c2ccccc2)ccnn1C1CCN(Cc2ccccc2)CC1` [cpd 1, 2-(1-benzylpiperidin-4-yl)-4-phenylpyridazin-3(2H)-one hydrochloride], the inhibition at 0.01 µM is 59.9%. Moreover, the inhibition at 0.1 µM (tested compound 100 nM) was 97.1%.
Take `O=c1c(-c2ccccc2)ccnn1CC1CCN(CC2CCOCC2)CC1` [cpd 15, 4-phenyl-2-((1-((tetrahydro-2H-pyran-4-yl)methyl)piperidin-4-yl)methyl)pyridazin-3(2H)-one dihydrochloride]: testing at 0.01 µM gave an inhibition of 19.3%.
Regarding `O=c1c(N2CCCCC2)ccnn1C1CCN(Cc2ccccc2)CC1` [cpd 38, 2-(1-benzylpiperidin-4-yl)-4-(piperidin-1-yl)-2,3-dihydropyridazin-3-one hydrochloride], the inhibition at 0.01 µM turned out to be 52.3%. The inhibition at 0.1 µM (tested compound 100 nM) was found to be 90%.
For `O=c1c(CCc2ccccc2)ccnn1C1CCN(Cc2ccccc2)CC1` [cpd 37, 2-(1-benzylpiperidin-4-yl)-4-(2-phenylethyl)-2,3-dihydropyridazin-3-one hydrochloride], in that order: 90% and 100%.
As for `O=c1c(-c2ccc(F)cc2)ccnn1CC1CCN(Cc2ccccc2)CC1` [cpd 35, 2-((1-benzylpiperidin-4-yl)methyl)-4-(4-fluorophenyl)pyridazin-3(2H)-one hydrochloride], testing at 0.01 µM gave an inhibition of 44.6%.
The same measure, in the same setting: the figure for `O=c1c(-c2ccccc2)ccnn1CC1(O)CCN(Cc2ccccc2)CC1` [cpd 29, 2-((1-benzyl-4-hydroxypiperidin-4-yl)methyl)-4-phenylpyridazin-3(2H)-one hydrochloride] is 10.6%; for `O=c1c(-c2ccccc2)ccnn1CC1CCN(Cc2ccncc2)CC1` [cpd 14, 4-phenyl-2-((1-(pyridin-4-ylmethyl)piperidin-4-yl)methyl)pyridazin-3(2H)-one hydrochloride] it is 16.4%.
The same measure, in the same setting: the figure for `O=c1c(-c2ccccc2)ccnn1CC1CCN(CC(O)c2ccc(F)cc2)CC1` (stereo not drawn) [cpd 23, 2-((1-(2-(4-fluorophenyl)-2-hydroxyethyl)piperidin-4-yl)methyl)-4-phenylpyridazin-3(2H)-one hydrochloride] is 1.3%; for `CCCN1CCC(Cn2nccc(-c3ccccc3)c2=O)CC1` [cpd 11, 4-phenyl-2-((1-propylpiperidin-4-yl)methyl)pyridazin-3(2H)-one hydrochloride] it is 3.9%; for `O=c1c(-c2ccccc2)ccnn1C1CCN(CCc2ccccc2)CC1` [cpd 3, 4-phenyl-2-[1-(2-phenylethyl)piperidin-4-yl]-2,3-dihydropyridazin-3-one hydrochloride] it is 41.9%.
`CC(C1CCN(Cc2ccccc2)CC1)n1nccc(-c2ccccc2)c1=O` (stereo not drawn) [cpd 28, 2-(1-(1-benzylpiperidin-4-yl)ethyl)-4-phenylpyridazin-3(2H)-one hydro chloride]: the inhibition at 0.01 µM turned out to be 37%.
Same read-out and setting: the figure for `O=c1c(-c2ccccc2)cccn1CC1CCN(Cc2ccccc2)CC1` [cpd 46, 1-[(1-benzylpiperidin-4-yl)methyl]-3-phenyl-1,2-dihydropyridin-2-one hydrochloride] is 75.6%.

The term inhibition denotes the drop in the measured response relative to a control, in per cent. A low value points to little suppression.

The values are drawn from patent publication US20230049619A1, “SIGMA-1 RECEPTOR LIGANDS AND USES THEREOF” (UNIVERSITE DE STRASBOURG, priority 2019, published 2023).
